Reference: publication PMC7180572, “5-Alkylamino-N-phenylpyrazine-2-carboxamides: Design, Preparation, and Antimycobacterial Evaluation” (Molecules, 2020)
≈ marks a conversion by molar mass, not a printed value.

Tests used:
[1] = system: Mycobacterium aurum DSM 43999 (ATCC 23366); assay: Microdilution broth, modified Microplate Alamar Blue Assay, whole cell growth inhibition; type: cell-based; conditions: Mycolicibacterium aurum; in vitro, Middlebrook 7H9 broth, resazurin; read-out: MIC Mycobacterium aurum
[2] = system: Mycobacterium tuberculosis H37Ra ITM-M006710 (ATCC 9431); assay: as above; type: cell-based; conditions: Mycobacterium tuberculosis; in vitro, Middlebrook 7H9 broth, resazurin; read-out: MIC Mtb H37Ra
[3] = system: Mycobacterium smegmatis DSM 43465 (ATCC 607); assay: as above; type: cell-based; conditions: Mycolicibacterium smegmatis; in vitro, Middlebrook 7H9 broth, resazurin; read-out: MIC Mycobacterium smegmatis
[4] = system: Serratia marcescens; assay: Antibacterial microdilution broth method (EUCAST); type: cell-based; conditions: 48 h, standards, read-out: MIC against Serratia marcescens
[5] = system: M. kansasii CNCTC My 235/80 (ATCC 12478); assay: 96 well plate microdilution broth method with Alamar Blue; type: cell-based; conditions: Mycobacterium kansasii, ATCC12478; Middlebrook 7H9 broth pH 6.6; read-out: MIC Mycobacterium kansasii
[6] = system: M. avium ssp. avium CNCTC My 80/72 (ATCC 15769); assay: as above; type: cell-based; conditions: Mycobacterium avium, ATCC15769; Middlebrook 7H9 broth pH 6.6; read-out: MIC Mycobacterium avium
[7] = type: physicochemical
Method: As a complementary test, final compounds were tested for in vitro activity against selected fungal and bacterial pathogens of clinical importance. The microdilution broth method was performed according to The European Committee on Antimicrobial Susceptibility Testing (EUCAST) instructions with slight modifications. The minimum inhibitory concentration was expressed in µM. Not all compounds were evaluated due to the fact of a problem with solubility which occurred for 18 samples. […] See Supplementary Materials for the list of tested strains, methodology, and full results.

[8] = system: HepG2 cells; assay: HepG2 cytotoxicity, CellTiter 96 (MTS) assay; type: cell-based, human; conditions: for IC50: Homo sapiens, HepG2, 24 h incubation, > means higher concentration not reproducible due to precipitation, read-out: HepG2 IC50; for SI, selectivity index: IC50 (HepG2)/MIC against Mtb H37Ra (in µM)

| SMILES | MIC [1] | MIC [2] | MIC [3] | MIC [4] | MIC [5] | MIC [6] | Solubility problem in antibacterial/antifungal testing [7] | IC50 [8] | melting point | SI, selectivity index [8] |
| --- | --- | --- | --- | --- | --- | --- | --- | --- | --- | --- |
| O=C(O)c1cn(C2CC2)c2cc(N3CCNCC3)c(F)cc2c1=O [CPX, ciprofloxacin, reference compound] | 0.0156 to 0.0313 µg/mL (≈ 0.0471 to 0.0945 µM) | 0.125 to 0.25 µg/mL (≈ 0.377 to 0.754 µM) | 0.0625 to 0.125 µg/mL (≈ 0.189 to 0.377 µM) | 0.256 µg/mL (≈ 0.773 µM) | – | – | – | – | – | – |
| CCCCCNc1cnc(C(=O)Nc2ccc(Cl)cc2O)cn1 [Compound 6c, N-(4-chloro-2-hydroxyphenyl)-5-(pentylamino)pyrazine-2-carboxamide] | ≥ 500 µg/mL | ≥ 500 µg/mL | 3.91 µg/mL (≈ 11.7 µM) | – | 25 µg/mL (≈ 74.7 µM) | > 100 µg/mL | did not dissolve in DMSO | 81.1 µM | 206.5 to 208.7 °C | – |
| CCCCCCCCNc1cnc(C(=O)Nc2ccc(O)cc2)cn1 [Compound 3f, N-(4-hydroxyphenyl)-5-(octylamino)pyrazine-2-carboxamide] | ≥ 250 µg/mL | 3.13 µg/mL (≈ 9.14 µM) | ≥ 250 µg/mL | – | 6.25 µg/mL (≈ 18.3 µM) | > 100 µg/mL | did not dissolve in DMSO | 60.2 µM | 142 to 143 °C | 6.6 |
| CCCCCCNc1cnc(C(=O)Nc2ccc(Cl)cc2O)cn1 [Compound 6d, N-(4-chloro-2-hydroxyphenyl)-5-(hexylamino)pyrazine-2-carboxamide] | ≥ 500 µg/mL | 3.13 µg/mL (≈ 8.97 µM) | 3.91 µg/mL (≈ 11.2 µM) | – | 25 µg/mL (≈ 71.7 µM) | > 100 µg/mL | did not dissolve in DMSO | > 50 µM | 201.7 to 204.9 °C | >5.27 |
